From patent US8778929B2, “Substituted heteroaryl inhibitors of B-RAF” (Boehringer Ingelheim International GmbH, priority 2008, dated 2014)

Molecular target: B-Raf (V600E)-kinase (Homo sapiens, UniProt P15056, V600E)
Experiment: Kinase test B-Raf (V600E)
Format: biochemical
Conditions: 100% = no inhibition, 0% = total inhibition, read-out: % CTL (residual activity of the enzyme relative to DMSO control); for remaining activity at 2 µM: compound concentration 2 μM
Experimental: In a dilution series 10 μL of test substance solution are placed in a multiwell plate. The dilution series is selected so that generally a range of concentrations of 2 μM to 0.119 nM or 0.017 nM is covered. If necessary the initial concentration of 2 μM is changed to 50 μM, 10 μM or 0.4 μM or 0.2857 μM and further dilution is carried out accordingly. The final concentration of DMSO is 5%. 10 μL of the B-Raf (V600E)-kinase solution are pipetted in (containing 0.5 ng B-Raf (V600E)-kinase in 20 mM Tris-HCl pH 7.5, 0.1 mM EDTA, 0.1 mM EGTA, 0.286 mM sodium orthovanadate, 10% glycerol, 1 mg/mL bovine serum albumin, 1 mM dithiothreitol) and the mixture is incubated for 1 h at RT under with shaking The kinase reaction is started by the addition of 20 μL ATP solution [final concentration: 250 μM ATP, 30 mM Tris-HCl pH 7.5, 0.02% Brij, 0.2 mM sodium orthovanadate, 10 mM magnesium acetate, 0.1 mM EGTA, phosphatase cocktail (Sigma, # P2850, dilution recommended by the manufacturer), 0.1 mM EGTA] and 10 μL MEK1 solution [containing 50 ng biotinylated MEK1 (prepared from purified MEK1 according to standard procedure, e.g. with EZ-Link Sulpho-NHS-LC-Biotin reagent, Pierce, # 21335) and carried out for 60 min at RT with constant shaking. The reaction is stopped by the addition of 12 μL of a 100 mM EDTA solution and incubation is continued for a further 5 min. 55 μL of the reaction solution are transferred into a streptavidin-coated plate (e.g. Streptawell HighBond, Roche, #11989685001) and shaken gently for 1 h at RT, in order to bind biotinylated MEK1 to the plate. After elimination of the liquid the plate is washed five times with 200 μL of 1×PBS and 100 μL solution of primary antibody plus europium-labelled secondary antibody [Anti Phospho-MEK (Ser217/221), Cell Signaling, # 9121 and Eu-N1 labeled goat-anti-rabbit antibody, Perkin Elmer, #AD0105], the primary antibody is diluted 1:2000 and the secondary antibody is diluted to 0.4-0.5 μg/mL in Delfia Assay Buffer (Perkin Elmer, #1244-111). After 1 h shaking at RT the solution is poured away and washed five times with 200 μL Delfia Wash Buffer (Perkin Elmer, #4010-0010/#1244-114). After the addition of 200 μL Enhancement Solution (Perkin Elmer, #4001-0010/#1244-105) the mixture is shaken for 10 min at RT and then measured in a Wallac Victor using the program “Delfia Time Resolved Fluorescence (Europium)”. IC50 values are obtained from these dosage-activity curves using a software program (GraphPadPrizm).
A value of 100% indicates no inhibition while a value of 0% indicates total inhibition. The % CTL values denote the residual activity of the enzyme after the addition of the inhibitory compound in the solvent DMSO in relation to the enzyme activity in the solvent DMSO without the addition of a compound (control). The values were determined using the B-Raf(V600E)-kinase test described above.

B-Raf (V600E)-kinase, sequence (P15056 whole entry V600E): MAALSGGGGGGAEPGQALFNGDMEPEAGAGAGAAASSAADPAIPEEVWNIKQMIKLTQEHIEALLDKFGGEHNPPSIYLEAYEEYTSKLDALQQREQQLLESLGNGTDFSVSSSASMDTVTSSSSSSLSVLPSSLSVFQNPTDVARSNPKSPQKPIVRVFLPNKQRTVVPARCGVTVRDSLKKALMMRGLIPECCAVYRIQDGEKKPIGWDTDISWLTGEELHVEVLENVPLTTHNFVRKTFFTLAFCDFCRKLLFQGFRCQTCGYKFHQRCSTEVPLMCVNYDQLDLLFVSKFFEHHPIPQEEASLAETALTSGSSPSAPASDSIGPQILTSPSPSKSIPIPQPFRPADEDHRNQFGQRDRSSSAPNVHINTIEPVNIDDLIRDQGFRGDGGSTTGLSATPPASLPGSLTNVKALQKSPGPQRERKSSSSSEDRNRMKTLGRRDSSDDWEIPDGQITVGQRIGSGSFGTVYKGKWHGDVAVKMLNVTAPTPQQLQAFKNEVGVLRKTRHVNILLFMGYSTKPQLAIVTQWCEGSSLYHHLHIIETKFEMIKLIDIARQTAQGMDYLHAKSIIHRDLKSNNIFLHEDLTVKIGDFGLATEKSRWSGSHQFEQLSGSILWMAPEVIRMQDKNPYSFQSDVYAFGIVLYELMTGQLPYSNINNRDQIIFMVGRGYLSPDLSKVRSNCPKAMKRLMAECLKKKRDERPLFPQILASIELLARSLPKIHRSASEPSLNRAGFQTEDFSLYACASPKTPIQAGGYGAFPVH

## Cc1ncc(NC(=O)c2cc(C(F)(F)F)ccn2)cc1-n1cc(-c2cncc(N3CCN(C)CC3)c2)nn1 [XII-57]
  remaining activity at 2 µM: 0.9%

## Cc1ncc(C(=O)Nc2cc(CN(C)C)cc(C(F)(F)F)c2)cc1-n1cc(-c2cnn(C)c2C)nn1 [Example I-106]
  remaining activity at 2 µM: 1.3%

## COc1c(CN2CCCC2)cc(C(F)(F)F)cc1NC(=O)c1cnc(C)c(-n2cc(-c3cnn(C)c3C)nn2)c1 [Example I-104]
  remaining activity at 2 µM: 2.1%

## Cc1ncc(C(=O)Nc2cc(C(F)(F)F)ccn2)cc1-n1cc(-c2cncs2)nn1 [Example I-81]
  remaining activity at 2 µM: 1.2%

## Cc1ncc(C(=O)Nc2cc(C(F)(F)F)cc(N3CCOCC3)c2C)cc1-n1cc(-c2cnn(C)c2C)nn1 [Example I-122]
  remaining activity at 2 µM: 1.8%

## Cc1ncc(C(=O)Nc2cc(C(C)(C)C)on2)cc1-n1cc(-c2cncc(N3CCN(CCF)CC3)c2)nn1 [Example I-198]
  remaining activity at 2 µM: 1.7%

## Cc1ncc(C(=O)Nc2cc(C(C)(C)C)on2)cc1-n1cc(-c2cncc(CN3CC[C@@H](F)C3)c2)nn1 [Example I-192]
  remaining activity at 2 µM: 1.9%

## Cc1ncc(C(=O)Nc2cc(C(C)(C)C)on2)cc1-n1cc(-c2cncc(NC3CCOCC3)c2)nn1 [Example I-40]
  remaining activity at 2 µM: 1.4%

## Cc1ncc(C(=O)Nc2cc(C(C)(C)C)on2)cc1-n1cc(-c2cncc(NC3CCN(C(C)C)CC3)c2)nn1 [Example I-199]
  remaining activity at 2 µM: 1.6%

## Cc1ncc(C(=O)Nc2cc(C(C)(C)C)nn2C)cc1-n1cc(-c2cnn(C)c2C)nn1 [Example I-4]
  remaining activity at 2 µM: 1.7%

## Cc1ncc(C(=O)Nc2cc(C(C)(C)C)on2)cc1-n1cc(-c2cncc(N3CCN(CCO)CC3)c2)nn1 [Example I-179]
  remaining activity at 2 µM: 2.6%

## COCCN(C)Cc1cc(NC(=O)c2cnc(C)c(-n3cc(-c4cnn(C)c4C)nn3)c2)cc(C(F)(F)F)c1OC [Example I-96]
  remaining activity at 2 µM: 3.4%

## Cc1cn2c(-c3cn(-c4cc(C(=O)Nc5cc(C(C)(C)C)nn5C)cnc4C)nn3)cnc2cn1 [Example I-30]
  remaining activity at 2 µM: 6.9%

## Cc1cn2c(-c3cn(-c4cc(C(=O)Nc5cc(N6CCN(C)CC6)c(C)c(C(F)(F)F)c5)cnc4C)nn3)cnc2cn1 [Example I-44]
  remaining activity at 2 µM: 3.3%

## Cc1ncc(C(=O)Nc2cc(NCCN(C)C)cc(C(F)(F)F)c2)cc1-n1cc(-c2cnn(C)c2C)nn1 [Example I-78]
  remaining activity at 2 µM: 2.8%

## Cc1ncc(C(=O)Nc2cc(C(C)(C)C)ncn2)cc1-n1cc(-c2cncc(N3CCN(C)CC3)c2)nn1 [Example I-177]
  remaining activity at 2 µM: 1.9%

## Cc1ncc(C(=O)Nc2cc(C(C)(C)C)on2)cc1-n1cc(-c2cncnc2)nn1 [Example I-21]
  remaining activity at 2 µM: 2.2%

## Cc1ncc(C(=O)Nc2cc(C(C)C)no2)cc1-n1cc(-c2cncc(N3CCN(C(C)C)CC3)c2)nn1 [Example I-154]
  remaining activity at 2 µM: 2.9%

## COc1c(CO)cc(NC(=O)c2cnc(C)c(-n3cc(-c4cnn(C)c4C)nn3)c2)cc1C(F)(F)F [Example I-113]
  remaining activity at 2 µM: 2.9%

## Cc1ncc(C(=O)Nc2cc(CO)c(Cl)c(C(F)(F)F)c2)cc1-n1cc(-c2cnn(C)c2C)nn1 [Example I-115]
  remaining activity at 2 µM: 1.9%

## Cc1ncc(C(=O)Nc2cc(C(C)(C)C)on2)cc1-n1cc(-c2cncc(N3CCN(CCOC(C)C)CC3)c2)nn1 [Example I-197]
  remaining activity at 2 µM: 1%

## Cc1ncc(NC(=O)c2cc(C(F)(F)F)ccn2)cc1-n1cc(-c2cncc(N3CCN(C(C)C)CC3)c2)nn1 [XII-35]
  remaining activity at 2 µM: 1.7%

## Cc1ncc(NC(=O)c2cccc(C(C)(C)C#N)c2)cc1-n1cc(-c2cncc(N3CCN(C)CC3)c2)nn1 [XII-34]
  remaining activity at 2 µM: 0.8%

## CCOCCN1CCN(c2cncc(-c3cn(-c4cc(C(=O)Nc5cc(C(C)(C)C)on5)cnc4C)nn3)c2)CC1 [Example I-170]
  remaining activity at 2 µM: 7.5%

## COCCN1CCN(c2cc(OC(F)(F)F)cc(C(=O)Nc3cnc(C)c(-n4cc(-c5cnn(C)c5C)nn4)c3)c2)CC1 [XII-24]
  remaining activity at 2 µM: 3.8%

## Cc1ncc(C(=O)Nc2cc(OC(F)(F)F)cc(N3CCN(C)CC3)c2)cc1-n1cc(-c2cncnc2)nn1 [Example I-124]
  remaining activity at 2 µM: 1.9%

## Cc1ncc(C(=O)Nc2cc(C(C)(C)C)on2)cc1-n1cc(-c2cncc(N3CCN(C4CC4)CC3)c2)nn1 [Example I-165]
  remaining activity at 2 µM: 8.9%

## Cc1ncc(C(=O)Nc2cc(C3=CCN(C)CC3)c(C)c(C(F)(F)F)c2)cc1-n1cc(-c2cnn(C)c2C)nn1 [Example I-125]
  remaining activity at 2 µM: 1.2%

## Cc1ncc(C(=O)Nc2ccnc(C(C)(C)C)c2)cc1-n1cc(-c2cncc(N3CCN(C)CC3)c2)nn1 [Example I-178]
  remaining activity at 2 µM: 2.3%

## Cc1ncc(C(=O)Nc2cc(C(F)(F)F)ccn2)cc1-n1cc(-c2cncc(N3CCN(C(C)C)CC3)c2)nn1 [Example I-152]
  remaining activity at 2 µM: 2.4%

## Cc1ncc(C(=O)Nc2cc(CN(C)C)c(Cl)c(C(F)(F)F)c2)cc1-n1cc(-c2cnn(C)c2C)nn1 [Example I-52]
  remaining activity at 2 µM: 1.6%

## Cc1ncc(C(=O)Nc2cc(C(C)(C)C)on2)cc1-n1cc(-c2cncc(N3CCC(N4CCCCC4)CC3)c2)nn1 [Example I-139]
  remaining activity at 2 µM: 2.5%

## COc1cncc(-c2cn(-c3cc(C(=O)Nc4cc(N5CCN(C)CC5)cc(C(F)(F)F)c4)cnc3C)nn2)c1 [Example I-24]
  remaining activity at 2 µM: 1%

## Cc1ncc(C(=O)Nc2cc(N3CCN(C(C)C)CC3)cc(C(F)(F)F)c2)cc1-n1cc(-c2cnn(C)c2C)nn1 [Example I-58]
  remaining activity at 2 µM: 5.5%

## Cc1ncc(C(=O)Nc2cc(C(F)(F)F)cc(N3CCCC3)c2C)cc1-n1cc(-c2cnn(C)c2C)nn1 [Example I-121]
Measurement at 1.43 μM (***)
  remaining activity at 1.43 µM: 2.3%

## Cc1ncc(C(=O)Nc2cc(C(C)(C)C)on2)cc1-n1cc(-c2cncc(CN3CCOCC3)c2)nn1 [Example I-184]
  remaining activity at 2 µM: 2.5%

## Cc1ncc(C(=O)Nc2cc(C(F)(F)F)ccn2)cc1-n1cc(-c2cnn(C)c2C)nn1 [Example I-2]
  remaining activity at 2 µM: 8%

## Cc1ncc(C(=O)Nc2cc(CN(C)C)c(C)c(C(F)(F)F)c2)cc1-n1cc(-c2cnn(C)c2C)nn1 [Example I-93]
  remaining activity at 2 µM: 3.5%

## Cc1ncc(C(=O)Nc2cc(C3=CCN(C)CC3)cc(C(F)(F)F)c2)cc1-n1cc(-c2cnn(C)c2C)nn1 [Example I-87]
  remaining activity at 2 µM: 1.7%

## Cc1ncc(NC(=O)c2cc(OC(F)(F)F)cc(N3CCN(C)CC3)c2)cc1-n1cc(-c2cncnc2)nn1 [XII-26]
  remaining activity at 2 µM: 2.2%

## COc1ccc(NC(=O)c2cnc(C)c(-n3cc(-c4cncnc4)nn3)c2)cc1C(F)(F)F [Example I-64]
  remaining activity at 2 µM: 6.6%

## Cc1ncc(C(=O)Nc2cc(CNC(C)C)c(C)c(C(F)(F)F)c2)cc1-n1cc(-c2cnn(C)c2C)nn1 [Example I-132]
  remaining activity at 2 µM: 1%

## CCN1CCN(c2cc(NC(=O)c3cnc(C)c(-n4cc(-c5ccc(NC(C)=O)nc5)nn4)c3)cc(C(F)(F)F)c2C)CC1 [Example I-47]
  remaining activity at 2 µM: 2%

## CCN1CCN(Cc2cncc(-c3cn(-c4cc(C(=O)Nc5cc(C(C)(C)C)on5)cnc4C)nn3)c2)CC1 [Example I-188]
  remaining activity at 2 µM: 1.5%

## Cc1cn2c(-c3cn(-c4cc(NC(=O)c5cc(N6CCN(C)CC6)c(C)c(C(F)(F)F)c5)cnc4C)nn3)cnc2cn1 [XII-18]
  remaining activity at 2 µM: 2.1%

## COCCN1CCCN(c2cncc(-c3cn(-c4cc(C(=O)Nc5cc(C(C)(C)C)on5)cnc4C)nn3)c2)CC1 [Example I-201]
  remaining activity at 2 µM: 1.6%

## Cc1ncc(C(=O)Nc2cc(C(C)(C)C)on2)cc1-n1cc(-c2cncc(N3CCN(C(C)(C)C)CC3)c2)nn1 [Example I-167]
  remaining activity at 2 µM: 7.9%

## Cc1ncc(C(=O)Nc2cc(C(F)(F)F)cc(Br)c2C)cc1-n1cc(-c2cnn(C)c2C)nn1 [Example I-100]
  remaining activity at 2 µM: 3%

## CCN1CCN(c2cncc(-c3cn(-c4cc(NC(=O)c5cccc(OC(F)(F)F)c5)cnc4C)nn3)c2)CC1 [XII-55]
  remaining activity at 2 µM: 1.8%

## Cc1ncc(NC(=O)c2cc(C(C)(C)C)on2)cc1-n1cc(-c2cnn(C)c2C)nn1 [XII-3]
  remaining activity at 2 µM: 4.7%
